Assay results taken from PubChem BioAssay AID2060885 (Molecular Pharmacology Branch, DTP, NCI, 2025).

Test system: NCI-H23 complex spheroids with HUVEC/MSC, viability
Experiment: Anticancer human tumor NCI-H23 cell line growth inhibition [RAS];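 also: spheroids exposed to compound for 7 days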;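 as to viability, T/C: 100% = DMSO vehicle control viability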
Conditions: for IC50: curve of first compound; for viability, T/C: stronger effect = lower value
Outline: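 Tumour cells grown as complex spheroids with HUVEC endothelial cells and mesenchymal stem cells, treated with RAS pathway inhibitor combinations. Each agent spans half-log steps from near clinical Cmax, or 10 microM where Cmax is unknown.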

[1] = second compound 0.000949 µM, first compound 0.0316 µM
[2] = second compound 0.000949 µM, first compound 0.1 µM
[3] = second compound 0.000949 µM, first compound 0.316 µM
[4] = second compound 0.000949 µM, first compound 1 µM
[5] = second compound 0.000949 µM, first compound 3.16 µM
[6] = second compound 0.000949 µM, first compound 10 µM
[7] = second compound 0.003 µM, first compound 0.0316 µM
[8] = second compound 0.003 µM, first compound 0.1 µM
[9] = second compound 0.003 µM, first compound 0.316 µM
[10] = second compound 0.003 µM, first compound 1 µM
[11] = second compound 0.003 µM, first compound 3.16 µM
[12] = second compound 0.003 µM, first compound 10 µM
[13] = second compound 0.00949 µM, first compound 0.0316 µM
[14] = second compound 0.00949 µM, first compound 0.1 µM
[15] = second compound 0.00949 µM, first compound 0.316 µM
[16] = second compound 0.00949 µM, first compound 1 µM
[17] = second compound 0.00949 µM, first compound 3.16 µM
[18] = second compound 0.00949 µM, first compound 10 µM
[19] = second compound 0.03 µM, first compound 0.0316 µM
[20] = second compound 0.03 µM, first compound 0.1 µM
[21] = second compound 0.03 µM, first compound 0.316 µM
[22] = second compound 0.03 µM, first compound 1 µM
[23] = second compound 0.03 µM, first compound 3.16 µM
[24] = second compound 0.03 µM, first compound 10 µM
[25] = second compound 0.0949 µM, first compound 0.0316 µM
[26] = second compound 0.0949 µM, first compound 0.1 µM
[27] = second compound 0.0949 µM, first compound 0.316 µM
[28] = second compound 0.0949 µM, first compound 1 µM
[29] = second compound 0.0949 µM, first compound 3.16 µM
[30] = second compound 0.0949 µM, first compound 10 µM
[31] = second compound 0.3 µM, first compound 0.0316 µM
[32] = second compound 0.3 µM, first compound 0.1 µM
[33] = second compound 0.3 µM, first compound 0.316 µM
[34] = second compound 0.3 µM, first compound 1 µM
[35] = second compound 0.3 µM, first compound 3.16 µM
[36] = second compound 0.3 µM, first compound 10 µM
[37] = second compound 0.000949 µM, first compound 0.00316 µM
[38] = second compound 0.000949 µM, first compound 0.01 µM
[39] = second compound 0.003 µM, first compound 0.00316 µM
[40] = second compound 0.003 µM, first compound 0.01 µM
[41] = second compound 0.00949 µM, first compound 0.00316 µM
[42] = second compound 0.00949 µM, first compound 0.01 µM
[43] = second compound 0.03 µM, first compound 0.00316 µM
[44] = second compound 0.03 µM, first compound 0.01 µM
[45] = second compound 0.0949 µM, first compound 0.00316 µM
[46] = second compound 0.0949 µM, first compound 0.01 µM
[47] = second compound 0.3 µM, first compound 0.00316 µM
[48] = second compound 0.3 µM, first compound 0.01 µM

In the case of `CC(C)NCC(C(=O)N1CCN(c2ncnc3c2C(C)CC3O)CC1)c1ccc(Cl)cc1` (stereo not drawn) + CCn1c(-c2cccnc2C(C)OC)c2c3cc(ccc31)N1CCOC(CC(NC(=O)C(C(C)C)N(C)C(=O)C3(F)CCN(C(=O)C#CC(C)(C)N(C)C)CC3)C(=O)N3CCCC(N3)C(=O)OCC(C)(C)C2)C1, the IC50 (second compound 0.000949 µM) is reported as < 31.6 nM, the IC50 (second compound 0.003 µM) is reported as < 31.6 nM and the IC50 (second compound 0.00949 µM) is reported as < 31.6 nM. For the same compound, the IC50 (second compound 0.03 µM) was < 31.6 nM, the IC50 (second compound 0.0949 µM) was < 31.6 nM and the IC50 (second compound 0.3 µM) was < 31.6 nM. The viability, T/C [1] was 33.6%, the viability, T/C [2] was 35.1% and the viability, T/C [3] was 23.7%. For the same compound, the viability, T/C [4] was 23.4%, the viability, T/C [5] was 17.5% and the viability, T/C [6] was 11.6%. The viability, T/C [7] was 33.8%, the viability, T/C [8] was 27.3% and the viability, T/C [9] was 22%. For the same compound, the viability, T/C [10] was 18.7%, the viability, T/C [11] was 18.1% and the viability, T/C [12] was 10.3%. For the same compound, the viability, T/C [13] was 28.9%, the viability, T/C [14] was 24.2% and the viability, T/C [15] was 25.3%. The viability, T/C [16] was 19.6%, the viability, T/C [17] was 14.9% and the viability, T/C [18] was 12.3%. The viability, T/C [19] was 30.9%, the viability, T/C [20] was 25.3% and the viability, T/C [21] was 25.2%. The viability, T/C [22] was 20.4%, the viability, T/C [23] was 13.8% and the viability, T/C [24] was 12.3%. For the same compound, the viability, T/C [25] was 24.3%, the viability, T/C [26] was 26.8% and the viability, T/C [27] was 22.6%. The viability, T/C [28] was 19.6%, the viability, T/C [29] was 13.3% and the viability, T/C [30] was 12.5%. For the same compound, the viability, T/C [31] was 21.4%, the viability, T/C [32] was 23.2% and the viability, T/C [33] was 22%. The viability, T/C [34] was 16.6%, the viability, T/C [35] was 11.6% and the viability, T/C [36] was 13.5%.

In the case of `CC(C)n1nc(-c2ccc3oc(N)nc3c2)c2c(N)ncnc21` + CCn1c(-c2cccnc2C(C)OC)c2c3cc(ccc31)N1CCOC(CC(NC(=O)C(C(C)C)N(C)C(=O)C3(F)CCN(C(=O)C#CC(C)(C)N(C)C)CC3)C(=O)N3CCCC(N3)C(=O)OCC(C)(C)C2)C1, the IC50 (second compound 0.000949 µM) is reported as < 0.316 nM, the IC50 (second compound 0.003 µM) is reported as < 0.316 nM and the IC50 (second compound 0.00949 µM) is reported as < 0.316 nM. For the same compound, the IC50 (second compound 0.03 µM) was < 0.316 nM, the IC50 (second compound 0.0949 µM) was < 0.316 nM and the IC50 (second compound 0.3 µM) was < 0.316 nM. The viability, T/C (second compound 0.000949 µM, first compound 0.000316 µM) was 33.1%, the viability, T/C (second compound 0.000949 µM, first compound 0.001 µM) was 33.1% and the viability, T/C [37] was 22%. For the same compound, the viability, T/C [38] was 18.4%, the viability, T/C [1] was 16.5% and the viability, T/C [2] was 8.34%. It also gave a viability, T/C (second compound 0.003 µM, first compound 0.000316 µM) of 30.4%, a viability, T/C (second compound 0.003 µM, first compound 0.001 µM) of 25% and a viability, T/C [39] of 20.8%. It also gave a viability, T/C [40] of 18.1%, a viability, T/C [7] of 12.2% and a viability, T/C [8] of 8.88%. It also gave a viability, T/C (second compound 0.00949 µM, first compound 0.000316 µM) of 28%, a viability, T/C (second compound 0.00949 µM, first compound 0.001 µM) of 24.2% and a viability, T/C [41] of 22.4%. The viability, T/C [42] was 17.7%, the viability, T/C [13] was 12% and the viability, T/C [14] was 9.44%. It also gave a viability, T/C (second compound 0.03 µM, first compound 0.000316 µM) of 26.2%, a viability, T/C (second compound 0.03 µM, first compound 0.001 µM) of 24.5% and a viability, T/C [43] of 20.3%. It also gave a viability, T/C [44] of 18.6%, a viability, T/C [19] of 10.4% and a viability, T/C [20] of 9.27%. The viability, T/C (second compound 0.0949 µM, first compound 0.000316 µM) was 27.5%, the viability, T/C (second compound 0.0949 µM, first compound 0.001 µM) was 25.4% and the viability, T/C [45] was 24.9%. For the same compound, the viability, T/C [46] was 15.9%, the viability, T/C [25] was 9.52% and the viability, T/C [26] was 10.3%. It also gave a viability, T/C (second compound 0.3 µM, first compound 0.000316 µM) of 24.9%, a viability, T/C (second compound 0.3 µM, first compound 0.001 µM) of 21.9% and a viability, T/C [47] of 22.9%. For the same compound, the viability, T/C [48] was 16.1%, the viability, T/C [31] was 10.5% and the viability, T/C [32] was 9.53%.

With `CCN1CCN(Cc2ccc(Nc3ncc(F)c(-c4cc(F)c5nc(C)n(C(C)C)c5c4)n3)nc2)CC1` + CCn1c(-c2cccnc2C(C)OC)c2c3cc(ccc31)N1CCOC(CC(NC(=O)C(C(C)C)N(C)C(=O)C3(F)CCN(C(=O)C#CC(C)(C)N(C)C)CC3)C(=O)N3CCCC(N3)C(=O)OCC(C)(C)C2)C1 the IC50 (second compound 0.000949 µM) was < 3.16 nM, the IC50 (second compound 0.003 µM) was < 3.16 nM and the IC50 (second compound 0.00949 µM) was < 3.16 nM. For the same compound, the IC50 (second compound 0.03 µM) was < 3.16 nM, the IC50 (second compound 0.0949 µM) was < 3.16 nM and the IC50 (second compound 0.3 µM) was < 3.16 nM. For the same compound, the viability, T/C [37] was 27.6%, the viability, T/C [38] was 26.4% and the viability, T/C [1] was 14%. The viability, T/C [2] was 15.9%, the viability, T/C [3] was 14.6% and the viability, T/C [4] was 10.6%. For the same compound, the viability, T/C [39] was 28.6%, the viability, T/C [40] was 20.8% and the viability, T/C [7] was 16.3%. The viability, T/C [8] was 15%, the viability, T/C [9] was 12.9% and the viability, T/C [10] was 10.8%. It also gave a viability, T/C [41] of 26.9%, a viability, T/C [42] of 21.9% and a viability, T/C [13] of 16%. It also gave a viability, T/C [14] of 14.2%, a viability, T/C [15] of 12.3% and a viability, T/C [16] of 11.5%. The viability, T/C [43] was 30.6%, the viability, T/C [44] was 21.5% and the viability, T/C [19] was 18%. The viability, T/C [20] was 12.5%, the viability, T/C [21] was 11.2% and the viability, T/C [22] was 13.2%. For the same compound, the viability, T/C [45] was 23.4%, the viability, T/C [46] was 22.1% and the viability, T/C [25] was 15.8%. It also gave a viability, T/C [26] of 13.2%, a viability, T/C [27] of 10.2% and a viability, T/C [28] of 14.9%. The viability, T/C [47] was 22.2%, the viability, T/C [48] was 19.3% and the viability, T/C [31] was 14.2%. It also gave a viability, T/C [32] of 12.1%, a viability, T/C [33] of 12% and a viability, T/C [34] of 14.2%.

`C[C@@H](NC(=O)c1ncnc(N)c1Cl)c1ncc(C(=O)Nc2cc(C(F)(F)F)c(Cl)cn2)s1` + CCn1c(-c2cccnc2C(C)OC)c2c3cc(ccc31)N1CCOC(CC(NC(=O)C(C(C)C)N(C)C(=O)C3(F)CCN(C(=O)C#CC(C)(C)N(C)C)CC3)C(=O)N3CCCC(N3)C(=O)OCC(C)(C)C2)C1 was tested, and the IC50 (second compound 0.000949 µM) was < 31.6 nM, the IC50 (second compound 0.003 µM) was < 31.6 nM and the IC50 (second compound 0.00949 µM) was < 31.6 nM. The IC50 (second compound 0.03 µM) was < 31.6 nM, the IC50 (second compound 0.0949 µM) was < 31.6 nM and the IC50 (second compound 0.3 µM) was < 31.6 nM. It also gave a viability, T/C [1] of 36.4%, a viability, T/C [2] of 32.5% and a viability, T/C [3] of 24.2%. For the same compound, the viability, T/C [4] was 34.2%, the viability, T/C [5] was 32.5% and the viability, T/C [6] was 25.4%. For the same compound, the viability, T/C [7] was 33%, the viability, T/C [8] was 31.1% and the viability, T/C [9] was 29.7%. For the same compound, the viability, T/C [10] was 33.3%, the viability, T/C [11] was 31.2% and the viability, T/C [12] was 25.3%. The viability, T/C [13] was 32.8%, the viability, T/C [14] was 27.5% and the viability, T/C [15] was 30.9%. For the same compound, the viability, T/C [16] was 30.9%, the viability, T/C [17] was 30.8% and the viability, T/C [18] was 24.5%. For the same compound, the viability, T/C [19] was 30.7%, the viability, T/C [20] was 30.1% and the viability, T/C [21] was 28.1%. For the same compound, the viability, T/C [22] was 29.3%, the viability, T/C [23] was 26.9% and the viability, T/C [24] was 27.9%. The viability, T/C [25] was 25.8%, the viability, T/C [26] was 29.3% and the viability, T/C [27] was 31.6%. The viability, T/C [28] was 28.6%, the viability, T/C [29] was 23.6% and the viability, T/C [30] was 28.4%. For the same compound, the viability, T/C [31] was 27.3%, the viability, T/C [32] was 27.4% and the viability, T/C [33] was 31%. It also gave a viability, T/C [34] of 23.1%, a viability, T/C [35] of 26.3% and a viability, T/C [36] of 27.4%.
